US4345938A, “Herbicidal 2-haloacetanilides” (Monsanto Company, priority 1980, dated 1982)
Values after ≈ are worked out from the molar mass of the structure shown.

Experiments:
Format in all cases: in vivo
Crabgrass = test: Pre-emergent herbicidal test, Crabgrass; conditions: Table II; also: ranges in brackets are in %
Description: (§1) A good grade of top soil is placed in aluminum pans and compacted to a depth of three-eights to one-half inch from the top of the pan. On the top of the soil is placed a number of seeds or vegetative propagules of various plant species. The soil required to level fill the pans after seeding or adding vegetative propagules is weighted into a pan. The soil and a known amount of the active ingredient applied in a solvent or as a wettable powder suspension are thoroughly mixed, and used to cover the prepared pans. After treatment, the pans are moved into a greenhouse bench where they are watered by subirrigation as needed to give adequate moisture for germination and growth.
(§2) Approximately 2 weeks after seeding and treating, the plants were observed and the results recorded. The herbicidal rating was obtained by means of a fixed scale based on the percent injury of each plant species. The ratings are defined as follows: […]
The compounds were further tested by utilizing the above procedure on the following plant species: […]

direct-seeded rice = test: Field tests in direct-seeded rice; conditions: less tolerant than transplant rice
Description: The herbicides of this invention may be used singly, as mixtures with other herbicides and may be used in sequential use with other herbicides. For example, treatments of a transplant rice crop with the herbicides of this invention may be followed with treatments of other herbicides or mixtures such as S-4-chlorobenzyl diethylthiocarbamate (common name "benthiocarb") plus 2-chloro-4,6-di(ethylamino)-1,3,5-triazine (common name "simazine") or 3-isopropyl-(1H)-benzo-2,1,3-thiadiazine-4-one-2,2-dioxide (common name "bentazone") or 4-(4-chloro-2-methylphenoxy)butyric acid (common name "MCPB"). […] However, because of the high unit activity of compounds according to this invention against annual and perennial weeds associated with rice, it is within the purview of this invention to combine these herbicides with safeners or antidotes, to enhance the tolerance of both transplanted and direct-seeded rice thereto. Exemplary safeners contemplated as useful with the herbicides of this invention include the phenylglyoxylonitrile-2-oxime cyanomethyl ether described in U.S. Pat. No. 4,152,137, 2,4-disubstituted-5-thiazolecarboxylic acids and derivatives thereof as disclosed in the assignee's copending U.S. Ser. No. 906,183 and other known safeners for 2-haloacetanilides in rice.

Canada Thistle = test: Pre-emergent herbicidal test, Canada Thistle; conditions: Table I; also: ranges in brackets are in %
Description: as §1, §2

[1] = Fish toxicity (carp), Japanese protocol; conditions: in vivo, carp (7 cm), read-out: TLM, Median Tolerance Limit (LC50)
Protocol: (§3) In view of the importance of fish toxicity considerations, tests were conducted with the compound of Example 1 on carp (7 cm) according to Japanese protocol; test data are shown in Table VII. Since U.S. Pat. No. 3,955,959 mentioned above discloses carp toxicity data for butachlor (Compound A) and terbuchlor (Compound C), also obtained according to Japanese protocol, the toxicity data in said U.S. Pat. No. 3,955,959 for these compounds is also presented in Table VII for comparative purposes.

Carp = test: Fish toxicity (carp), Japanese protocol
Protocol: as §3

yellow foxtail = test: Sugarbeet greenhouse test, YFT; conditions: in sugarbeets
Description: (§4) In the discussion of data below, occasional reference is made to herbicide application rates symbolized as "GR15 " and "GR85 "; these rates are given in kilograms per hectare (kg/ha) which are convertible into pounds per acre (lbs/A) by dividing the kg/ha rate by 1.12.
(§5) A further guide to the effectiveness of a chemical as a selective herbicide is the "selectivity factor" ("SF") for a herbicide in given crops and weeds. The selectivity factor is a measure of the relative degree of crop safety and weed injury and is expressed in terms of the GR15 /GR85 ratio, i.e., the GR15 rate for the crop divided by the GR85 rate for the weed, both rates in kg/ha (lb/A.)
(§6) In further tests in the greenhouse, the compound of Example 2 was tested for its activity against annual weeds in sugarbeets at test rates within the range of 0.07 to 1.12 kg/ha (0.0625 to 1.0 lb/A). The GR15 and GR85 rates for sugarbeets and the various weeds are shown in Table VI; the selectivity factors for the herbicide against the weeds in sugarbeets are shown in parentheses below the weeds; "NS" means non-selective within the test limits. The following abbreviations are used in the table: barnyardgrass (BYG), wild oats (WO), downy brome (DB); redroot pigweed (RRP), blackgrass (BG), large crabgrass (LCG) and yellow foxtail (YFT).

Sugarbeets = test: Sugarbeet greenhouse test, crop tolerance
Protocol: as §4, §6

wild oats = test: Sugarbeet greenhouse test, WO; conditions: in sugarbeets
Description: as §4, §5, §6

redroot pigweed = test: Sugarbeet greenhouse test, RRP; conditions: in sugarbeets
Description: as §4, §5, §6

blackgrass = test: Sugarbeet greenhouse test, BG; conditions: in sugarbeets
Description: as §4, §5, §6

## CCCCOc1cccc(CC)c1N(C)C(=O)CCl [Example 1, N-methyl-2'-n-butoxy-6'-ethyl-2-chloroacetanilide]
Crabgrass; 0.006 kg/h
  Rating, Crabgrass: 1 (25-49)
Crabgrass; 0.01 kg/h
  Rating, Crabgrass: 3 (75-100)
Crabgrass; 0.06 kg/h
  Rating, Crabgrass: 3 (75-100)
Crabgrass; 0.28 kg/h
  Rating, Crabgrass: 3 (75-100)
Crabgrass; 1.12 kg/h
  Rating, Crabgrass: 3 (75-100)
Crabgrass; 5.6 kg/h
  Rating, Crabgrass: 3 (75-100)
direct-seeded rice
  efficacy in direct-seeded rice: less-efficacious
Canada Thistle; 5.6 kg/h
  Rating, Canada Thistle: 3 (75-100)
Canada Thistle; 11.2 kg/h
  Rating, Canada Thistle: 3 (75-100)
[1]; 96 Hours
  LC50 at 96 h: 2.4 mg/L (≈ 8.46 µM)
[1]; 48 hours
  LC50 at 48 h: 3.2 mg/L (≈ 11.3 µM)
Carp; at expected use rates, vs Compound A
  expected fish kill relative to Compound A: only one-sixth
Carp; vs Compound A
  toxicity to carp relative to Compound A: less than one-third as toxic
Carp; vs Compound C
  toxicity to carp relative to Compound C: almost one-half as toxic

## CCCCOc1cccc(CC)c1N(CC)C(=O)CCl [Example 2, N-ethyl-2'-n-butoxy-6'-ethyl-2-chloroacetanilide]
Yellow foxtail
  GR85 Rate, YFT: < 0.07 Kg/Ha
  selectivity factor, YFT: > 8.0
Sugarbeets
  GR15 Rate, Sugarbeets: 0.56 Kg/Ha
Wild oats
  GR85 Rate, WO: 0.28 Kg/Ha
  selectivity factor, WO: 2.0
Redroot pigweed
  GR85 Rate, RRP: > 1.12 Kg/Ha
  selectivity factor, RRP: NS (non-selective within the test limits)
blackgrass
  GR85 Rate, BG: 0.21 Kg/Ha
  selectivity factor, BG: 2.7
